Measured values reported in the supplement of paper PMC10307832.

Legend:
Assay in all cases: relative viability (nuclei count vs DMSO), 5 days (fraction); higher = more cells survive
[1] = compound: C1=CC2=NC=CN=C2C=C1/C=C/3\C(=O)NC(=O)S3 + COc1cccc2cc(-c3nc([C@H]4CC[C@H](C(=O)O)CC4)n4ncnc(N)c34)[nH]c12 [OSI-027] (partner 0.5 µM)
Method in brief: (§1)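 Relative viability was taken as the ratio of nuclei in treated wells to nuclei in vehicle wells. Lung cancer cell lines in 1536-well plates received compounds by pin tool one day after seeding, either one drug alone or a fixed anchor-drug dose plus five library-drug doses (not always all listed) in √10 steps. Nuclei were counted on 4× images after 5 days of treatment, and values are medians of duplicate plates.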

BGJ398 + Lapatinib = compound: CCN1CCN(c2ccc(Nc3cc(N(C)C(=O)Nc4c(Cl)c(OC)cc(OC)c4Cl)ncn3)cc2)CC1 [BGJ398] + CS(=O)(=O)CCNCc1ccc(-c2ccc3ncnc(Nc4ccc(OCc5cccc(F)c5)c(Cl)c4)c3c2)o1 [Lapatinib] (partner 2 µM)
Method in brief: as §1

BGJ398 + Dasatinib = compound: CCN1CCN(c2ccc(Nc3cc(N(C)C(=O)Nc4c(Cl)c(OC)cc(OC)c4Cl)ncn3)cc2)CC1 [BGJ398] + Cc1nc(Nc2ncc(C(=O)Nc3c(C)cccc3Cl)s2)cc(N2CCN(CCO)CC2)n1 [Dasatinib] (partner 0.075 µM)
Method in brief: as §1

[2] = compound: C1=CC2=NC=CN=C2C=C1/C=C/3\C(=O)NC(=O)S3 + CS(=O)(=O)N1CCN(Cc2cc3nc(-c4cccc5[nH]ncc45)nc(N4CCOCC4)c3s2)CC1 [Pictilisib] (partner 1 µM)
Method in brief: as §1

Row | Cell Line | relative viability ([1]; first compound 0.02 µM) | relative viability ([1]; first compound 0.06325 µM) | relative viability ([1]; first compound 0.2 µM) | relative viability ([1]; first compound 0.6325 µM) | relative viability ([1]; first compound 2 µM) | relative viability (BGJ398 + Lapatinib; first compound 0.01 µM) | relative viability (BGJ398 + Lapatinib; first compound 0.03162 µM) | relative viability (BGJ398 + Lapatinib; first compound 0.1 µM) | relative viability (BGJ398 + Lapatinib; first compound 0.3162 µM) | relative viability (BGJ398 + Lapatinib; first compound 1 µM) | relative viability (BGJ398 + Dasatinib; first compound 0.01 µM) | relative viability (BGJ398 + Dasatinib; first compound 0.03162 µM) | relative viability (BGJ398 + Dasatinib; first compound 0.1 µM) | relative viability (BGJ398 + Dasatinib; first compound 0.3162 µM) | relative viability (BGJ398 + Dasatinib; first compound 1 µM) | relative viability ([2]; first compound 0.02 µM) | relative viability ([2]; first compound 0.06325 µM) | relative viability ([2]; first compound 0.2 µM) | relative viability ([2]; first compound 0.6325 µM) | relative viability ([2]; first compound 2 µM)
1 | NCI-H1993 | 0.494 | 0.552 | 0.551 | 0.544 | 0.475 | 0.8 | 0.825 | 0.87 | 0.935 | 0.746 | 0.694 | 0.595 | 0.611 | 0.641 | 0.578 | 0.811 | 0.881 | 0.757 | 0.878 | 0.592
2 | NCI-H322M | 0.546 | 0.478 | 0.497 | 0.53 | 0.384 | 0.675 | 0.561 | 0.551 | 0.581 | 0.58 | 0.268 | 0.227 | 0.227 | 0.262 | 0.236 | 0.477 | 0.476 | 0.586 | 0.518 | 0.434
3 | NCI-H2342 | 0.506 | 0.682 | 0.628 | 0.632 | 0.535 |  |  |  |  |  | 0.321 | 0.33 | 0.334 | 0.318 | 0.295 |  |  |  |  | 
4 | ChaGo-K-1 | 0.567 | 0.58 | 0.544 | 0.424 | 0.352 |  |  |  |  |  | 0.598 | 0.582 | 0.613 | 0.545 | 0.627 | 0.886 | 1.26 | 1.07 | 0.665 | 0.621
5 | HCC-44 | 0.775 | 0.445 | 0.656 | 0.463 | 0.225 | 0.973 | 1.01 | 1.01 | 1.04 | 0.993 |  |  |  |  |  | 0.615 | 0.563 | 0.593 | 0.552 | 0.514
6 | A549 |  |  |  |  |  | 0.885 | 0.99 | 0.952 | 0.919 | 0.819 |  |  |  |  |  | 0.518 | 0.646 | 0.453 | 0.555 | 0.464
7 | SW 900 | 0.635 | 0.499 | 0.602 | 0.608 | 0.504 |  |  |  |  |  | 0.448 | 0.388 | 0.352 | 0.383 | 0.232 |  |  |  |  | 
8 | IA-LM |  |  |  |  |  | 0.864 | 0.742 | 0.846 | 0.704 | 0.758 |  |  |  |  |  |  | 0.524 | 0.308 | 0.333 | 0.286
9 | NCI-H1703 |  |  |  |  |  | 0.988 | 1.32 | 1.04 | 1.05 | 1.36 |  |  |  |  |  | 0.241 | 0.318 | 0.187 | 0.243 | 0.232
10 | NCI-H441 | 0.742 | 0.695 | 0.759 | 0.669 | 0.405 |  |  |  |  |  | 0.577 | 0.83 | 0.542 | 0.672 | 0.607 | 0.453 | 0.48 | 0.447 | 0.573 | 0.477
11 | LCLC-103H | 0.431 | 0.493 | 0.489 | 0.377 | 0.308 |  |  |  |  |  | 0.471 | 0.446 | 0.447 | 0.487 | 0.381 | 0.61 | 0.768 | 0.706 | 0.539 | 0.531
12 | NCI-H1648 | 0.238 |  | 0.313 | 0.246 | 0.261 |  |  |  |  |  |  |  |  |  |  |  |  |  |  | 
